The results in this text go back to patent US6281363A, “Cyclic hydrazine derivatives” (Hoffmann-La Roche Inc., priority 1998, dated 2001).

For the assay, the system named is LPS-induced TNF-α release. In words: inhibition of LPS-induced TNF-α release from THP1 cells (TNF-α by ELISA). The following applies: Homo sapiens, THP-1, LPS 2 mg/ml, 0.5 hour preincubation with compound, 3 hours at 37° C. with LPS, read-out: IC50 (concentration of test compound which brings about 50% inhibition of LPS-induced TNF-α release). The assay is classed as cell-based. As to the method:
Aliquots (200 μl) of the cell suspension were plated out on 96 well culture plates and incubated for 0.5 hour at 37° C. prior to the addition of the test compounds. The latter were dissolved in dimethyl sulphoxide (DMSO) to a stock concentration of 1.2 mM which was diluted with phosphate buffered saline/10% DMSO solution to provide test compounds in final concentrations of 10^-9 to 10^-5 M, with each concentration being tested in duplicate. The cells were incubated with the test compounds for 0.5 hour at 37° C., LPS (bacterial lipopolysaccharide) was then added to a concentration of 2 mg/ml and incubation was continued for 3 hours at 37° C. in an atmosphere containing 5% CO2 and at 95% relative humidity. After centrifugation at 260 g for 10 minutes an aliquot of each supernatant was removed and the amount of TNF-α was estimated by ELISA (R & D Systems Europe Ltd., Abingdon, England).
Background: ELISA stands for enzyme-linked immunosorbent assay.
Take `CC(C)C[C@@H](C(=O)NN1C(=O)CNC1=O)[C@H](C/C=C/c1ccccc1)C(=O)NO` [Compound A, (E)-2(R)-[1(S)-(Hydroxycarbamoyl)-4-phenyl-3-butenyl]-4-methyl-N-(2,5-dioxo-1-imidazolidinyl)valeramide]: the IC50 turned out to be 280 nM.

For `CC(C)C[C@@H](C(=O)NN1C(=O)CCNC1=O)[C@H](C/C=C/c1ccccc1)C(=O)NO` [Compound B, (E)-N-(Hexahydro-2,6-dioxo-1-pyrimidinyl)-2(R)-[1(S)-(hydroxycarbamoyl)-4-phenyl-3-butenyl]-4-methylvaleramide], the IC50 was 382 nM.

For `CC(C)C[C@@H](C(=O)NN1C(=O)CNC1=O)[C@H](CCCC1CCCCC1)C(=O)NO` [Compound C, 2(R)-[4-Cyclohexyl-1(S)-(hydroxycarbamoyl)butyl]-4-methyl-N-(2,5-dioxo-1-imidazolidinyl)valeramide], the IC50 stood at 242 nM.

Turning to `CC(C)C[C@@H](C(=O)NN1C(=O)NCCS1(=O)=O)[C@H](C/C=C/c1ccccc1)C(=O)NO` [Compound D, (E)-N-(Tetrahydro-3-oxo-2H-1,2,4-thiadiazin-2-yl)-2(R)-[1(S)-(hydroxycarbamoyl)-4-phenyl-3-butenyl]-4-methylvaleramide S,S-dioxide], the IC50 was 389 nM.

As for `CC(C)C[C@@H](C(=O)NN1C(=O)CNCC1=O)[C@H](CCCc1ccccc1)C(=O)NO` [Compound E, 2(R)-[1(S)-(Hydroxycarbamoyl)-4-phenylbutyl]-4-methyl-N-(2,6-dioxo-1-piperazinyl)valeramide p-toluenesulphonate], the IC50 came to 1450 nM.

As to `CC(C)C[C@@H](C(=O)NN1C(=O)N[C@@H](C(C)C)C1=O)[C@H](CCCc1ccccc1)C(=O)NO` [Compound F, 2(R)-[1(S)-(Hydroxycarbamoyl)-4-phenylbutyl]-N-(4(S)-isopropyl-2,5-dioxo-1-imidazolidinyl)-4-methylvaleramide], the IC50 is 156 nM.

For the compound `CC[C@H](C)[C@@H]1NC(=O)N(NC(=O)[C@H](CC(C)C)[C@H](CCCc2ccccc2)C(=O)NO)C1=O` [Compound G], the IC50 was found to be 147 nM.

As for `CSCC[C@@H]1NC(=O)N(NC(=O)[C@H](CC(C)C)[C@H](CCCc2ccccc2)C(=O)NO)C1=O` [Compound H, 2(R)-[1(S)-(Hydroxycarbamoyl)-4-phenylbutyl]-4-methyl-N-[4(S)-[2-(methylthio)ethyl]-2,5-dioxo-1-imidazolidinyl]valeramide], the IC50 came out at 234 nM.

On to `CC(C)C[C@@H](C(=O)NN1C(=O)N[C@@H](CO)C1=O)[C@H](CCCc1ccccc1)C(=O)NO` [Compound I, 2(R)-[1(S)-(Hydroxycarbamoyl)-4-phenylbutyl]-N-[4(S)-(hydroxymethyl)-2,5-dioxo-1-imidazolidinyl]-4-methylvaleramide], for which the IC50 worked out at 387 nM.

Turning to `CC(C)C[C@@H](C(=O)NN1C(=O)[C@H](C(C)C)NC1=S)[C@H](CCCc1ccccc1)C(=O)NO` [Compound J, 2(R)-[1(S)-(Hydroxycarbamoyl)-4-phenylbutyl]-N-(4(S)-isopropyl-5-oxo-2-thioxo-1-imidazolidinyl)-4-methylvaleramide], the IC50 was 597 nM.

Regarding `CC[C@H](C)[C@@H]1NC(=O)N(NC(=O)[C@H](CC(C)C)[C@H](C/C=C/c2ccccc2)C(=O)NO)C1=O` [Compound K, (E)-2(R)-[1(S)-(Hydroxycarbamoyl)-4-phenyl-3-butenyl]-N-[4(S)-(1(S)-methylpropyl)-2,5-dioxo-1-imidazolidinyl]-4-methylvaleramide], the IC50 is 162 nM.

`CC(C)C[C@@H](C(=O)NN1C(=O)N[C@@H](CO)C1=O)[C@H](C/C=C/c1ccccc1)C(=O)NO` [Compound L, (E)-2(R)-[1(S)-(Hydroxycarbamoyl)-4-phenyl-3-butenyl]-N-[4(S)-(hydroxymethyl)-2,5-dioxo-1-imidazolidinyl]-4-methylvaleramide]: the IC50 is 302 nM.

In the case of `CC(C)C[C@@H](C(=O)NN1C(=O)NC2(CCN(C(=O)OCc3ccccc3)CC2)C1=O)[C@H](CCCc1ccccc1)C(=O)NO` [Compound M, Benzyl 3-[2(R)-[1(S)-(hydroxycarbamoyl)-4-phenylbutyl]-4-methylvaleramido]-2,4-dioxo-1,3,8-triazaspiro[4,5]decane-8-carboxylate], the IC50 came out at 620 nM.

As to `CC(C)C[C@@H](C(=O)Nn1c(=O)[nH]c2ccsc2c1=O)[C@H](CCCc1ccccc1)C(=O)NO` [Compound N, N-(1,2,3,4-Tetrahydro-2,4-dioxothieno[3,2-d]pyrimidin-3-yl)-2(R)-[1(S)-(hydroxycarbamoyl)-4-phenylbutyl]-4-methylvaleramide], the IC50 worked out at 172 nM.

In the case of `CC(C)C[C@@H](C(=O)Nn1c(=O)[nH]c2cscc2c1=O)[C@H](CCCc1ccccc1)C(=O)NO` [Compound O, N-(1,2,3,4-Tetrahydro-2,4-dioxothieno[3,4-d]pyrimidin-3-yl)-2(R)-[1(S)-(hydroxycarbamoyl)-4-phenylbutyl]-4-methylvaleramide], the IC50 was found to be 177 nM.

As for `COC[C@@H]1NC(=O)N(NC(=O)[C@H](CC(C)C)[C@H](CCCc2ccccc2)C(=O)NO)C1=O` [Compound P], the IC50 stood at 346 nM.

Consider `CC(C)C[C@@H](C(=O)NN1C(=O)CNC1=O)[C@H](CCCc1ccccc1)C(=O)NO` [Compound Q, 2(R)-[1(S)-(Hydroxycarbamoyl)-4-phenylbutyl]-4-methyl-N-(2,5-dioxo-1-imidazolidinyl)valeramide], for which the IC50 was 234 nM.

Turning to `CC(=O)N1CCC2(CC1)NC(=O)N(NC(=O)[C@H](CC(C)C)[C@H](CCCc1ccccc1)C(=O)NO)C2=O` [Compound R, 1-(8-Acetyl-2,4-dioxo-1,3,8-triazaspiro[4. 5]decan-3-yl)-2(R)-[1(S)-(hydroxycarbamoyl)-4-phenylbutyl]-4-methylvaleramide], the IC50 was 481 nM.

For the compound `CC(C)C[C@@H](C(=O)NN1C(=O)CNC1=O)[C@H](Cc1ccc(-c2ccccc2)cc1)C(=O)NO` [Compound S, 2(R)-[2-(4-Biphenylyl)-1(S)-(hydroxycarbamoyl)ethyl]-N-(2,5-dioxo-1-imidazolidinyl)-4-methylvaleramide], the IC50 was 308 nM.
